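Following 48 hours of exposure in 96-well plates, responses at five concentrations were used to interpolate endpoints linearly. GI50: concentration for 50% inhibition of growth. TGI is the concentration that stops growth completely.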
How the values were obtained:
Assay in all cases: inhibition of tumour cell growth, NCI panel, 48 h
U251 CNS = tested on: U251 CNS
MCF7 breast = tested on: MCF7 breast
IGROV1 ovarian = tested on: IGROV1 ovarian
MDA-MB-231 breast = tested on: MDA-MB-231 breast
UACC-257 melanoma = tested on: UACC-257 melanoma
SF-539 CNS = tested on: SF-539 CNS
HOP-62 NSCLC = tested on: HOP-62 NSCLC
K-562 leukemia = tested on: K-562 leukemia
UACC-62 melanoma = tested on: UACC-62 melanoma
MDA-N = tested on: MDA-N

## CN(C)Cc1cc(C(=O)/C=C/c2ccc(F)cc2)cc(CN(C)C)c1O
U251 CNS
  TGI: > 100 µM
MCF7 breast
  TGI: 42.4 µM
IGROV1 ovarian
  TGI: > 100 µM
MDA-MB-231 breast
  TGI: > 100 µM
UACC-257 melanoma
  TGI: 31 µM
SF-539 CNS
  TGI: 44.4 µM
HOP-62 NSCLC
  TGI: 58.5 µM
K-562 leukemia
  TGI: 62.5 µM
UACC-62 melanoma
  TGI: 8.98 µM

## Cc1nc2cccc([N+](=O)[O-])c2n1CCCN(C)C
U251 CNS
  TGI: > 100 µM
MCF7 breast
  TGI: > 100 µM
MDA-N
  TGI: > 100 µM
IGROV1 ovarian
  TGI: > 100 µM
MDA-MB-231 breast
  TGI: > 100 µM
UACC-257 melanoma
  TGI: > 100 µM
HOP-62 NSCLC
  TGI: > 100 µM
K-562 leukemia
  TGI: > 100 µM
UACC-62 melanoma
  TGI: > 100 µM

## O=C(c1ccccc1)c1nn(-c2ccccc2)c2nc3nc(-c4ccccc4)cc(=O)n3nc12
U251 CNS
  GI50: 32.6 µM
  TGI: > 100 µM
IGROV1 ovarian
  GI50: 25.6 µM
  TGI: > 100 µM
MDA-MB-231 breast
  GI50: 26.2 µM
  TGI: > 100 µM
UACC-257 melanoma
  GI50: 30.7 µM
  TGI: 61.4 µM
SF-539 CNS
  GI50: 19.2 µM
  TGI: 38.6 µM
HOP-62 NSCLC
  GI50: 38 µM
  TGI: > 100 µM
K-562 leukemia
  GI50: 21.2 µM
  TGI: 66.7 µM
UACC-62 melanoma
  GI50: 29.4 µM
  TGI: 89.2 µM

## Cc1c(-c2ccc(O)c(O)c2)oc(=O)c2c(O)cccc12
U251 CNS
  TGI: 26.1 µM
MCF7 breast
  TGI: 34.4 µM
IGROV1 ovarian
  TGI: 20.1 µM
UACC-257 melanoma
  TGI: 44.3 µM
SF-539 CNS
  TGI: 48.4 µM
HOP-62 NSCLC
  TGI: 34.5 µM
K-562 leukemia
  TGI: 28.1 µM

## COc1cc(C(=O)OCCn2[nH]c(-c3ccc(Cl)cc3)nc2=S)cc(OC)c1OC
U251 CNS
  TGI: > 100 µM
MCF7 breast
  TGI: > 100 µM
MDA-N
  TGI: > 100 µM
MDA-MB-231 breast
  TGI: > 100 µM
UACC-257 melanoma
  TGI: > 100 µM
SF-539 CNS
  TGI: > 100 µM
HOP-62 NSCLC
  TGI: > 100 µM
K-562 leukemia
  TGI: > 100 µM
UACC-62 melanoma
  TGI: > 100 µM

## NC(=O)C1N=NSC1NC(=O)c1ccc([N+](=O)[O-])cc1 (configuration not stated)
U251 CNS
  TGI: > 100 µM
MCF7 breast
  TGI: > 100 µM
MDA-N
  TGI: > 100 µM
IGROV1 ovarian
  TGI: > 100 µM
MDA-MB-231 breast
  TGI: > 100 µM
UACC-257 melanoma
  TGI: > 100 µM
HOP-62 NSCLC
  TGI: > 100 µM
K-562 leukemia
  TGI: > 100 µM
UACC-62 melanoma
  TGI: > 100 µM

## COc1ccc(/C=C2\CN(C)CC3C2=NN(c2ccccc2)C3c2ccc(OC)cc2)cc1 (configuration not stated)
MCF7 breast
  TGI: > 100 µM
MDA-N
  TGI: > 100 µM
IGROV1 ovarian
  TGI: > 100 µM
UACC-257 melanoma
  TGI: > 100 µM
HOP-62 NSCLC
  TGI: > 100 µM
K-562 leukemia
  TGI: > 100 µM
UACC-62 melanoma
  TGI: > 100 µM

## O=C1C=C2CC[C@H]3[C@@H]4CC[C@H](Oc5c6ccccc6nc6ccccc56)[C@H]4CC[C@@H]3[C@H]2CC1
U251 CNS
  TGI: > 100 µM
MDA-N
  TGI: 75.2 µM
IGROV1 ovarian
  TGI: > 100 µM
MDA-MB-231 breast
  TGI: > 100 µM
UACC-257 melanoma
  TGI: > 100 µM
SF-539 CNS
  TGI: > 100 µM
HOP-62 NSCLC
  TGI: > 100 µM
K-562 leukemia
  TGI: > 100 µM
UACC-62 melanoma
  TGI: > 100 µM

## C=CCN1C[C@@H](C)N([C@@H](c2ccc(C(=O)N(CC)CC)cc2)c2cccc(OC)c2)C[C@@H]1C
U251 CNS
  TGI: > 100 µM
MCF7 breast
  TGI: > 100 µM
MDA-N
  TGI: > 100 µM
IGROV1 ovarian
  TGI: > 100 µM
MDA-MB-231 breast
  TGI: > 100 µM
SF-539 CNS
  TGI: > 100 µM
HOP-62 NSCLC
  TGI: > 100 µM
K-562 leukemia
  TGI: > 100 µM
UACC-62 melanoma
  TGI: > 100 µM

## Nc1[nH]c(=S)c2c(N)n[nH]c2c1C(=O)Nc1ccc(Cl)cc1
U251 CNS
  TGI: > 100 µM
MCF7 breast
  TGI: > 100 µM
MDA-N
  TGI: > 100 µM
IGROV1 ovarian
  TGI: > 100 µM
MDA-MB-231 breast
  TGI: > 100 µM
UACC-257 melanoma
  TGI: > 100 µM
SF-539 CNS
  TGI: > 100 µM
K-562 leukemia
  TGI: > 100 µM
UACC-62 melanoma
  TGI: > 100 µM

## CCCCS(=O)CC(CO)NC(=O)/C=C/c1c(C)[nH]c(=O)[nH]c1=O (configuration not stated)
U251 CNS
  TGI: 26.7 µM
MCF7 breast
  TGI: 51 µM
IGROV1 ovarian
  TGI: 35.4 µM
UACC-257 melanoma
  TGI: 55 µM
SF-539 CNS
  TGI: 35.4 µM
HOP-62 NSCLC
  TGI: 45 µM
K-562 leukemia
  TGI: 82.1 µM
UACC-62 melanoma
  TGI: 32 µM

## CCN(CC)CCNC(=O)c1nn(-c2ccc(Cl)cc2)c2c1CCc1cc(OC)ccc1-2
U251 CNS
  TGI: 17.8 µM
MDA-N
  TGI: 10.2 µM
IGROV1 ovarian
  TGI: 26.6 µM
MDA-MB-231 breast
  TGI: 24.5 µM
UACC-257 melanoma
  TGI: 3.57 µM
SF-539 CNS
  TGI: 13.4 µM
HOP-62 NSCLC
  TGI: 29.2 µM
K-562 leukemia
  TGI: 11.1 µM
UACC-62 melanoma
  TGI: 7.58 µM

## CC(=O)OC1OC(c2ccoc2)C[C@@]12C1CCC3O[C@]3(C)[C@]1(C)C[C@H](OC(C)=O)[C@H]2C (some centres not stated)
U251 CNS
  TGI: > 75 µM
MCF7 breast
  TGI: > 75 µM
MDA-N
  TGI: > 75 µM
IGROV1 ovarian
  TGI: > 75 µM
MDA-MB-231 breast
  TGI: > 75 µM
UACC-257 melanoma
  TGI: > 75 µM
SF-539 CNS
  TGI: > 75 µM
K-562 leukemia
  TGI: > 75 µM
UACC-62 melanoma
  TGI: > 75 µM

## CC#CCCCC1(C)CCCNC1=S (configuration not stated)
U251 CNS
  TGI: > 10 µM
MCF7 breast
  TGI: > 10 µM
IGROV1 ovarian
  TGI: > 10 µM
MDA-MB-231 breast
  TGI: > 10 µM
UACC-257 melanoma
  TGI: > 10 µM
SF-539 CNS
  TGI: > 10 µM
K-562 leukemia
  TGI: > 10 µM
UACC-62 melanoma
  TGI: > 10 µM

## CC(=O)OCCOCCN1CCN(c2c(O)c3c(c(O)c2Cl)C(=O)C=CC3=O)CC1
U251 CNS
  TGI: 4.1 µM
MCF7 breast
  TGI: 0.976 µM
MDA-N
  TGI: 1.79 µM
IGROV1 ovarian
  TGI: 3.04 µM
MDA-MB-231 breast
  TGI: 1.09 µM
UACC-257 melanoma
  TGI: 2.38 µM
SF-539 CNS
  TGI: 3.37 µM
HOP-62 NSCLC
  TGI: 7.1 µM
UACC-62 melanoma
  TGI: 2.81 µM

## O=C1Nc2ccccc2/C1=C\c1c(Cl)nc2n1CCS2
U251 CNS
  TGI: 75.6 µM
MCF7 breast
  TGI: 60.6 µM
MDA-N
  TGI: 43.6 µM
IGROV1 ovarian
  TGI: > 100 µM
MDA-MB-231 breast
  TGI: 53.2 µM
UACC-257 melanoma
  TGI: 30.6 µM
HOP-62 NSCLC
  TGI: > 100 µM
K-562 leukemia
  TGI: > 100 µM
UACC-62 melanoma
  TGI: 32.2 µM

## Cc1nc2ccccc2n1Cc1nnc2n1N=C(c1ccccc1)CS2
U251 CNS
  TGI: > 100 µM
MCF7 breast
  TGI: > 100 µM
MDA-N
  TGI: > 100 µM
IGROV1 ovarian
  TGI: 20.1 µM
MDA-MB-231 breast
  TGI: 62.9 µM
UACC-257 melanoma
  TGI: 65.3 µM
SF-539 CNS
  TGI: > 100 µM
HOP-62 NSCLC
  TGI: > 100 µM
UACC-62 melanoma
  TGI: 99.4 µM

## Cc1cc(=O)c2ccccc2n1CCCCCCCCCCn1c(C)cc(=O)c2ccccc21
U251 CNS
  TGI: 29 µM
MDA-N
  TGI: 43.1 µM
IGROV1 ovarian
  TGI: 43.8 µM
MDA-MB-231 breast
  TGI: > 100 µM
UACC-257 melanoma
  TGI: 25.2 µM
SF-539 CNS
  TGI: 44.3 µM
HOP-62 NSCLC
  TGI: > 100 µM
K-562 leukemia
  TGI: 17.9 µM
UACC-62 melanoma
  TGI: 34.9 µM

## CCCCc1c2c(nc3c1CC/C(=C\c1ccc([N+](=O)[O-])cc1)C3=O)CCCC2
U251 CNS
  TGI: 2.96 µM
IGROV1 ovarian
  TGI: 3.24 µM
UACC-257 melanoma
  TGI: 4.6 µM
SF-539 CNS
  TGI: 3.2 µM
HOP-62 NSCLC
  TGI: 3.29 µM
K-562 leukemia
  TGI: 6.88 µM
UACC-62 melanoma
  TGI: 3 µM

## N=C(N)SCc1ccc(N=C=S)cc1
U251 CNS
  TGI: 29 µM
MDA-N
  TGI: 26.6 µM
IGROV1 ovarian
  TGI: 26.7 µM
MDA-MB-231 breast
  TGI: 20.1 µM
UACC-257 melanoma
  TGI: 25.8 µM
SF-539 CNS
  TGI: 27.3 µM
HOP-62 NSCLC
  TGI: 32.5 µM
K-562 leukemia
  TGI: 44 µM
UACC-62 melanoma
  TGI: 23.7 µM

## COc1ccc(-c2nc3c(nc2-c2ccc(OC)cc2)N(C)S(=O)(=O)N=C3N)cc1
U251 CNS
  TGI: > 100 µM
IGROV1 ovarian
  TGI: > 100 µM
SF-539 CNS
  TGI: 51.5 µM
HOP-62 NSCLC
  TGI: > 100 µM
K-562 leukemia
  TGI: > 100 µM
UACC-62 melanoma
  TGI: 94.3 µM

## NC(C(=O)OC(=O)c1ccccc1)C(=O)OC(=O)c1ccccc1
U251 CNS
  TGI: > 100 µM
MCF7 breast
  TGI: > 100 µM
MDA-MB-231 breast
  TGI: > 100 µM
UACC-257 melanoma
  TGI: > 100 µM
SF-539 CNS
  TGI: > 100 µM
HOP-62 NSCLC
  TGI: > 100 µM
K-562 leukemia
  TGI: > 100 µM
